Assay results published in PMC5884652, “New antimicrobial peptide kills drug-resistant pathogens without detectable resistance” (Oncotarget, 2018).
Converted amounts (≈) assume the structure as drawn.

How the values were obtained:
Assay in all cases: microbe, parasite or virus in culture
Assay type in all cases: cell-based, Staphylococcus aureus
[1] = tested on: S. aureus 0027; settings: Staphylococcus aureus, 0027; pH (I or II) not given; 10 mM sodium phosphate buffer, 10% LB; 37° C, 24 h; mean of 3 experiments
Description: (§1) The method for peptide synthesis has been described in detail previously. E. coli ATCC 25922 (LB media), P. aeruginosa ATCC 15692 (NB+0.5% NaCl media), Listeria monocytogenes ATCC 3710 (LB media), Staphylococcus epidermidis ATCC 12228 (LB media), and S. aureus ATCC 29213 (TSB media) were obtained from the American Type Culture Collection (Manassas, VA, USA). Bacillus subtilis KCTC 1998 (LB media), Salmonella typhimurium KCTC 1926 (NB media), and Proteus vulgaris KCTC 2433 (NB media) were obtained from the Korean Collection for Type Cultures (Jeollabuk-do, Korea). E. coli CCARM 1238 was received from the Culture Collection of Antibiotic Resistant Microbes at Seoul Women’s University, Korea. Drug-resistant P. aeruginosa 3543, 3904, 3547, and 4007 and S. aureus 3126, 0027, 5157, 1635, 4761, 5159, 3359, 2122, 1630, 1870, 3511, 5156, and 3518 were resistant strains isolated from patients with otitis media in a Chonnam National University’s hospital.
(§2) The antibacterial activities of AMPs (melittin, clavaspirin, and its analogs) and conventional antibiotic drugs (erythromycin, gentamicin, ampicillin, and piperacidin) were determined using microdilution assays. Bacterial cells were cultured at 37° C in appropriate culture media at pH 5.5 or pH 7.4 until collection during the mid-log phase and suspended in 10 mM sodium phosphate buffer (pH 5.5 or pH 7.4) supplemented with 10% culture medium. Thereafter, 2× serial dilutions of each peptide (0.25–128 μM) or antibiotic (0.25–256 μM) were added to sterile 96-well plates, and aliquots of cell suspension (5 × 10^5 colony forming units (cfu)/mL) were seeded into each well. The samples were then incubated at 37° C for 24 h. At the end of the incubation, the minimum inhibitory concentrations (MICs) of the peptides were determined using a VERSA Max microplate reader (Molecular Devices Co., Sunnyvale, CA, USA) at a wavelength of 600 nm. […] MIC values were calculated as the mean of 3 independent experiments conducted in triplicate.

[2] = tested on: S. aureus 1630; settings: Staphylococcus aureus, 1630; pH (I or II) not given; 10 mM sodium phosphate buffer, 10% LB; 37° C, 24 h; mean of 3 experiments
Description: as §1, §2

[3] = tested on: S. aureus 1635; settings: Staphylococcus aureus, 1635; pH (I or II) not given; 10 mM sodium phosphate buffer, 10% LB; 37° C, 24 h; mean of 3 experiments
Description: as §1, §2

[4] = tested on: S. aureus 1870; settings: Staphylococcus aureus, 1870; pH (I or II) not given; 10 mM sodium phosphate buffer, 10% LB; 37° C, 24 h; mean of 3 experiments
Description: as §1, §2

[5] = tested on: S. aureus 2122; settings: Staphylococcus aureus, 2122; pH (I or II) not given; 10 mM sodium phosphate buffer, 10% LB; 37° C, 24 h; mean of 3 experiments
Description: as §1, §2

[6] = tested on: S. aureus 3126; settings: Staphylococcus aureus, 3126; pH (I or II) not given; 10 mM sodium phosphate buffer, 10% LB; 37° C, 24 h; mean of 3 experiments
Description: as §1, §2

[7] = tested on: S. aureus 3359; settings: Staphylococcus aureus, 3359; pH (I or II) not given; 10 mM sodium phosphate buffer, 10% LB; 37° C, 24 h; mean of 3 experiments
Description: as §1, §2

[8] = tested on: S. aureus 3511; settings: Staphylococcus aureus, 3511; pH (I or II) not given; 10 mM sodium phosphate buffer, 10% LB; 37° C, 24 h; mean of 3 experiments
Description: as §1, §2

[9] = tested on: S. aureus 3518; settings: Staphylococcus aureus, 3518; pH (I or II) not given; 10 mM sodium phosphate buffer, 10% LB; 37° C, 24 h; mean of 3 experiments
Description: as §1, §2

[10] = tested on: S. aureus 4761; settings: Staphylococcus aureus, 4761; pH (I or II) not given; 10 mM sodium phosphate buffer, 10% LB; 37° C, 24 h; mean of 3 experiments
Description: as §1, §2

[11] = tested on: S. aureus 5156; settings: Staphylococcus aureus, 5156; pH (I or II) not given; 10 mM sodium phosphate buffer, 10% LB; 37° C, 24 h; mean of 3 experiments
Description: as §1, §2

[12] = tested on: S. aureus 5157; settings: Staphylococcus aureus, 5157; pH (I or II) not given; 10 mM sodium phosphate buffer, 10% LB; 37° C, 24 h; mean of 3 experiments
Description: as §1, §2

[13] = tested on: S. aureus 5159; settings: Staphylococcus aureus, 5159; pH (I or II) not given; 10 mM sodium phosphate buffer, 10% LB; 37° C, 24 h; mean of 3 experiments
Description: as §1, §2

Question: How did the MIC [1] turn out when `CC[C@H]1OC(=O)[C@H](C)[C@@H](O[C@H]2C[C@@](C)(OC)[C@@H](O)[C@H](C)O2)[C@H](C)[C@@H](O[C@@H]2O[C@H](C)C[C@H](N(C)C)[C@H]2O)[C@](C)(O)C[C@@H](C)C(=O)[C@H](C)[C@@H](O)[C@]1(C)O` [erythromycin] was run?
Answer: > 256 µM

Question: What about the MIC [2] of the same compound?
Answer: > 256 µM

Question: What about the MIC [3] of the same compound?
Answer: > 256 µM

Question: And the MIC [4]?
Answer: > 256 µM

Question: What about the MIC [5] of the same compound?
Answer: > 256 µM

Question: What about the MIC [6] of the same compound?
Answer: 128 µM (≈ 93.9 µg/mL)

Question: And the MIC [7]?
Answer: > 256 µM

Question: What about the MIC [8] of the same compound?
Answer: > 256 µM

Question: What about the MIC [9] of the same compound?
Answer: > 256 µM

Question: What about the MIC [10] of the same compound?
Answer: > 256 µM

Question: And the MIC [11]?
Answer: > 256 µM

Question: And the MIC [12]?
Answer: 16 µM (≈ 11.7 µg/mL)

Question: What about the MIC [13] of the same compound?
Answer: 16 µM (≈ 11.7 µg/mL)

Question: For `CNC(C)C1CCC(N)C(OC2C(N)CC(N)C(OC3OCC(C)(O)C(NC)C3O)C2O)O1` (centres unmarked) [gentamicin], which MIC [1] is on record?
Answer: 64 µM (≈ 30.6 µg/mL)

Question: What about the MIC [2] of the same compound?
Answer: 64 µM (≈ 30.6 µg/mL)

Question: And the MIC [3]?
Answer: > 256 µM

Question: And the MIC [4]?
Answer: 16 µM (≈ 7.64 µg/mL)

Question: What about the MIC [5] of the same compound?
Answer: 128 µM (≈ 61.1 µg/mL)

Question: What about the MIC [6] of the same compound?
Answer: 32 µM (≈ 15.3 µg/mL)

Question: What about the MIC [7] of the same compound?
Answer: 64 µM (≈ 30.6 µg/mL)

Question: What about the MIC [8] of the same compound?
Answer: > 256 µM

Question: What about the MIC [9] of the same compound?
Answer: > 256 µM

Question: And the MIC [10]?
Answer: 32 µM (≈ 15.3 µg/mL)

Question: What about the MIC [11] of the same compound?
Answer: > 256 µM

Question: And the MIC [12]?
Answer: 16 µM (≈ 7.64 µg/mL)

Question: What about the MIC [13] of the same compound?
Answer: 16 µM (≈ 7.64 µg/mL)
